Results: publication PMC5428509, “Irreversible inhibition of BTK kinase by a novel highly selective inhibitor CHMFL-BTK-11 suppresses inflammatory response in rheumatoid arthritis model” (Scientific Reports, 2017)

Legend:
Assay in all cases: biochemical
Set-up in all cases: KinomeScan competition binding panel (DiscoveRx), percent of control at 1 uM
Settings in all cases: read-out: Percent Control
[1] = molecular target: EPHA4 (Homo sapiens, UniProt P54764)
In short: (§1)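 KinomeScan technology used to profile binding across a panel of 456 kinases and mutants.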

[2] = molecular target: KIT(D816V) (Homo sapiens, UniProt P10721, D816V)
In short: as §1

[3] = molecular target: HIPK3 (Homo sapiens, UniProt Q9H422)
In short: as §1

[4] = molecular target: T1, IKK-alpha (Homo sapiens, UniProt O15111)
T1 construct: gene CHUK
In short: as §1

[5] = molecular target: T2, PRKR (Homo sapiens, UniProt P19525)
T2 construct: gene EIF2AK2
In short: as §1

[6] = molecular target: DYRK2 (Homo sapiens, UniProt Q92630)
In short: as §1

[7] = molecular target: T3, LOK (Homo sapiens, UniProt O94804)
T3 construct: gene STK10
In short: as §1

[8] = molecular target: T4, JAK3(JH1domain-catalytic) (Homo sapiens, UniProt P52333)
T4 construct: JH1domain-catalytic
In short: as §1

[9] = molecular target: PIP5K1A (Homo sapiens, UniProt Q99755)
In short: as §1

[10] = molecular target: CAMK2D (Homo sapiens, UniProt Q13557)
In short: as §1

[11] = molecular target: SRPK2 (Homo sapiens, UniProt P78362)
In short: as §1

[12] = molecular target: KIT(D816H) (Homo sapiens, UniProt P10721, D816H)
In short: as §1

[13] = molecular target: T5, DLK (Homo sapiens, UniProt Q12852)
T5 construct: gene MAP3K12
In short: as §1

[14] = molecular target: T6, ICK (Homo sapiens, UniProt Q9UPZ9)
T6 construct: gene CILK1
In short: as §1

[15] = molecular target: T7, JAK2(JH1domain-catalytic) (Homo sapiens, UniProt O60674)
T7 construct: JH1domain-catalytic
In short: as §1

[16] = molecular target: MARK1 (Homo sapiens, UniProt Q9P0L2)
In short: as §1

[17] = molecular target: IRAK4 (Homo sapiens, UniProt Q9NWZ3)
In short: as §1

[18] = molecular target: PDGFRB (Homo sapiens, UniProt P09619)
In short: as §1

[19] = molecular target: MKNK1 (Homo sapiens, UniProt Q9BUB5)
In short: as §1

[20] = molecular target: BRSK2 (Homo sapiens, UniProt Q8IWQ3)
In short: as §1

[21] = molecular target: TAOK1 (Homo sapiens, UniProt Q7L7X3)
In short: as §1

[22] = molecular target: T8, MLK1 (Homo sapiens, UniProt P80192)
T8 construct: gene MAP3K9
In short: as §1

[23] = molecular target: CSNK1A1 (Homo sapiens, UniProt P48729)
In short: as §1

[24] = molecular target: CDK9 (Homo sapiens, UniProt P50750)
In short: as §1

[25] = molecular target: T9, GCN2(Kin.Dom.2,S808G) (Homo sapiens, UniProt Q9P2K8, S808G)
T9 construct: gene EIF2AK4; Kin.Dom.2
In short: as §1

T6 sequence (Q9UPZ9 whole entry): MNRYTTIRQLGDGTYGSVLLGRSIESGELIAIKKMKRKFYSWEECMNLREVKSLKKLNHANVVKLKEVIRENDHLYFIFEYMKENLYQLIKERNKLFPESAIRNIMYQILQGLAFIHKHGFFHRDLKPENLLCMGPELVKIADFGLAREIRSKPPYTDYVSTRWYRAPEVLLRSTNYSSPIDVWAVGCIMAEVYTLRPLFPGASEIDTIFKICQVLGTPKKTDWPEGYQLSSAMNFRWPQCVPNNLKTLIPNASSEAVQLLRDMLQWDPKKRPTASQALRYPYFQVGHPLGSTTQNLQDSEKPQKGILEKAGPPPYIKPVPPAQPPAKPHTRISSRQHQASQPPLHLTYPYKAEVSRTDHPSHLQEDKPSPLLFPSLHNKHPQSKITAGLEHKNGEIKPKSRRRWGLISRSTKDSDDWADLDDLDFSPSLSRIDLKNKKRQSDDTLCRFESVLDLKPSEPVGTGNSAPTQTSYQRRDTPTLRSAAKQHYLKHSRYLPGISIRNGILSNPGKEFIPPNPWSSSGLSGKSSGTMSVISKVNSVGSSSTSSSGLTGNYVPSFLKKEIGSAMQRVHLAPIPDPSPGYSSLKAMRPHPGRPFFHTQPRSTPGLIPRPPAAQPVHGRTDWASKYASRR
T3 sequence (O94804 whole entry): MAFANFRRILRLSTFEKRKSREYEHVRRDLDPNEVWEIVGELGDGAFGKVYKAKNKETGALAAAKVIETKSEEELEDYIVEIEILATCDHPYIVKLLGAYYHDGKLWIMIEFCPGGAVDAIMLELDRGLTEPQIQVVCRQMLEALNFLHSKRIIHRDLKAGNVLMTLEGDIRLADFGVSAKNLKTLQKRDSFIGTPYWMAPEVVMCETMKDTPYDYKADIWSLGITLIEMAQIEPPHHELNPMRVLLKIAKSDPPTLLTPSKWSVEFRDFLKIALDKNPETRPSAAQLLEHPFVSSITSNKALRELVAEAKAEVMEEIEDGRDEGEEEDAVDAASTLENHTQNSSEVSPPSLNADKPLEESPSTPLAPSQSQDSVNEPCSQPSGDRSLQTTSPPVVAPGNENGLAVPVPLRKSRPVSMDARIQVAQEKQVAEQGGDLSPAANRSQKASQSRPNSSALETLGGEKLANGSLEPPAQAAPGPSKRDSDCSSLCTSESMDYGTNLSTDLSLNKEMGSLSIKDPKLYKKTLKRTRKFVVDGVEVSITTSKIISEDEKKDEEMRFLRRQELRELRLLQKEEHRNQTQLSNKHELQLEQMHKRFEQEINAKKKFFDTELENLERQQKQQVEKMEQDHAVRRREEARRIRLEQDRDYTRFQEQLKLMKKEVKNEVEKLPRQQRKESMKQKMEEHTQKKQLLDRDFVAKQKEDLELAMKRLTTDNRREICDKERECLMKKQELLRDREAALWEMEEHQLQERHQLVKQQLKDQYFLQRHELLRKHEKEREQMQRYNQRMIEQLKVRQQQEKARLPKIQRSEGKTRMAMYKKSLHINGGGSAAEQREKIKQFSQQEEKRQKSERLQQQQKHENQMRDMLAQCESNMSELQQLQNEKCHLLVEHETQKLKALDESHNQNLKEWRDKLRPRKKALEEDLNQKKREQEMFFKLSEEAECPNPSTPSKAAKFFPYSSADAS
Sequence of EPHA4 (P54764 whole entry): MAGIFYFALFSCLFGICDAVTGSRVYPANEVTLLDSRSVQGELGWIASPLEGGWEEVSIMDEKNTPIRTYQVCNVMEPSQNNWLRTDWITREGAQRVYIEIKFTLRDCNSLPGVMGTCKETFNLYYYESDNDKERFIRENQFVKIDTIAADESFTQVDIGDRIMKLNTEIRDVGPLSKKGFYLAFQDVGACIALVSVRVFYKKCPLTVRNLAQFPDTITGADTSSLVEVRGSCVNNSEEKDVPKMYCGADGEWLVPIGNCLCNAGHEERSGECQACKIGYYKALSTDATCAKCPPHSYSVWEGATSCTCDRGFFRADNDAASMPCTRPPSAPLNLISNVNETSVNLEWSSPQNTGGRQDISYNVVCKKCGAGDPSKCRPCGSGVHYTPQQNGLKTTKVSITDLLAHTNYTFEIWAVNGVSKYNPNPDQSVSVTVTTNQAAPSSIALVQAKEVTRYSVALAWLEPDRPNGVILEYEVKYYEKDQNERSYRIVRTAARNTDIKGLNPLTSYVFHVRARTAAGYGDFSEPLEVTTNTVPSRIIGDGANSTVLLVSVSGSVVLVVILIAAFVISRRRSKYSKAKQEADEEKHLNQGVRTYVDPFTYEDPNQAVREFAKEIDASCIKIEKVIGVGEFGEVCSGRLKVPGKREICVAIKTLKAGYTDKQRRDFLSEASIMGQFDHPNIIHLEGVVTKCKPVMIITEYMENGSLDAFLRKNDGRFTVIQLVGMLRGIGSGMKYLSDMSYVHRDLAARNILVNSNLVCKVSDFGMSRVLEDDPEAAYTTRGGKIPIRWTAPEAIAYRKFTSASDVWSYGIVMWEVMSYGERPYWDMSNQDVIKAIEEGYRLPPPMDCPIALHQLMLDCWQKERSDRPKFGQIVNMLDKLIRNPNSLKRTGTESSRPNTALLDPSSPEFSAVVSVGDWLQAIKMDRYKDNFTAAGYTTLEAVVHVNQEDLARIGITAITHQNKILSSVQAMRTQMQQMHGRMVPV
Sequence of IRAK4 (Q9NWZ3 whole entry): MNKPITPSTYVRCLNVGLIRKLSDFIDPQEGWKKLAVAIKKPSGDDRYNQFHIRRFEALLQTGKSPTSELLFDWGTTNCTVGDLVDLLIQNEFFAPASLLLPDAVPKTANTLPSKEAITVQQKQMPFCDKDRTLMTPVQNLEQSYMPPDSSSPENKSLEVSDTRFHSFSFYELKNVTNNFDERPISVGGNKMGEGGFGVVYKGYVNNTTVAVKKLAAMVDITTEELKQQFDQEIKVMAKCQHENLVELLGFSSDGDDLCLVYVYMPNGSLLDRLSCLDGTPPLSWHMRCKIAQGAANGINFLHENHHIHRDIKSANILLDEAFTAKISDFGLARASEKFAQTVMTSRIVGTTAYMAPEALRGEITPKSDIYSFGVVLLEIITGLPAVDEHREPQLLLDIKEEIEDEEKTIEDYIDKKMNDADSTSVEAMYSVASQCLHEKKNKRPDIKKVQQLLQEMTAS
Sequence of TAOK1 (Q7L7X3 whole entry): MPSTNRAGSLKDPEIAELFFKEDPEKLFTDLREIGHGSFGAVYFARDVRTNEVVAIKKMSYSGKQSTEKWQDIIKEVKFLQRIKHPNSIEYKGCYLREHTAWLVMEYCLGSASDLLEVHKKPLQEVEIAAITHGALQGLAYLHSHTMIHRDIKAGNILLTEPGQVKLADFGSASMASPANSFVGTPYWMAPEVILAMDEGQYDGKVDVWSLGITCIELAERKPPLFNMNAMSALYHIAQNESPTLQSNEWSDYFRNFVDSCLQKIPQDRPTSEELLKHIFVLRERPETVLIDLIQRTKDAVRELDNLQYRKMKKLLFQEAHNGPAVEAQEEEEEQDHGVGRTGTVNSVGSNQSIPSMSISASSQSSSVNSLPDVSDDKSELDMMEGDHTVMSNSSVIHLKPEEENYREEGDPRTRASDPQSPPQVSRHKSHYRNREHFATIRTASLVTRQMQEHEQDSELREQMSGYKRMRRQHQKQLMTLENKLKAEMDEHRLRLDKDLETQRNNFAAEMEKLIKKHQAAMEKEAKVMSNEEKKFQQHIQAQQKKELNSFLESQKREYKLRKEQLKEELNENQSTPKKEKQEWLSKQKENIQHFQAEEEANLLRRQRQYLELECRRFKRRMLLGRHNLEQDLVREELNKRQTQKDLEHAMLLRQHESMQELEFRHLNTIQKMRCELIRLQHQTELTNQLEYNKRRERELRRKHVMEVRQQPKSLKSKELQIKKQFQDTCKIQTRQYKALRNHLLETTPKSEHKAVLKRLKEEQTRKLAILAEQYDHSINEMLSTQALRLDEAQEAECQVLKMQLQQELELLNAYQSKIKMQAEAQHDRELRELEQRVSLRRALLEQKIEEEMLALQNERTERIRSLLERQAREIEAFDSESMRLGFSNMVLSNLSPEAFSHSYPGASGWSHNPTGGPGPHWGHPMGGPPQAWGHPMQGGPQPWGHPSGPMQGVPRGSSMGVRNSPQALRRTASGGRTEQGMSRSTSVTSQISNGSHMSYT
Sequence of MARK1 (Q9P0L2 whole entry): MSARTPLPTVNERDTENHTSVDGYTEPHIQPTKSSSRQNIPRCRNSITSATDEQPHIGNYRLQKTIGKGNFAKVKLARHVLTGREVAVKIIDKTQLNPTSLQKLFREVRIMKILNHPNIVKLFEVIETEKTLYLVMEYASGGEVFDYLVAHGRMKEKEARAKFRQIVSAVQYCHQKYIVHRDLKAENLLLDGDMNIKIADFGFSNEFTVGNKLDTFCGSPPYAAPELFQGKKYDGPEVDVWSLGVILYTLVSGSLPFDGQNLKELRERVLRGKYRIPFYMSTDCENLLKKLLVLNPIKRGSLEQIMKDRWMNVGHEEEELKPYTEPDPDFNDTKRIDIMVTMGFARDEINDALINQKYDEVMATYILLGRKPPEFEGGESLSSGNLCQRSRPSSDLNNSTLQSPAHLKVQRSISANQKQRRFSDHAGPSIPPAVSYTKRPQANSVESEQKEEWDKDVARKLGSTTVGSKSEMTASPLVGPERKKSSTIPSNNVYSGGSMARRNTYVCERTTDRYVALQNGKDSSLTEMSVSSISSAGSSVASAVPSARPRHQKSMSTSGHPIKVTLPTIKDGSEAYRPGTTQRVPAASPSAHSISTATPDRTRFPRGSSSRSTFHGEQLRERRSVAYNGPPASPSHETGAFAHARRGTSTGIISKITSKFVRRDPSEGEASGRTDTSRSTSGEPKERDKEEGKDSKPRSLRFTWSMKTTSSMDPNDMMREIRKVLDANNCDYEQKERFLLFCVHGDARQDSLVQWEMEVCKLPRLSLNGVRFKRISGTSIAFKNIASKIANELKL

`C=CC(=O)Nc1cc(-n2c(=O)ccc3cnc4ccc(-n5cccn5)cc4c32)ccc1C` [CHMFL-BTK-11] was tested, and the remaining binding at 1 µM [1] was 100%, the remaining binding at 1 µM [2] was 97% and the remaining binding at 1 µM [3] was 100%. For the same compound, the remaining binding at 1 µM [4] was 96%, the remaining binding at 1 µM [5] was 80% and the remaining binding at 1 µM [6] was 55%. For the same compound, the remaining binding at 1 µM [7] was 97%, the remaining binding at 1 µM [8] was 5.7% and the remaining binding at 1 µM [9] was 100%. For the same compound, the remaining binding at 1 µM [10] was 80%, the remaining binding at 1 µM [11] was 100% and the remaining binding at 1 µM [12] was 100%. The remaining binding at 1 µM [13] was 100%, the remaining binding at 1 µM [14] was 100% and the remaining binding at 1 µM [15] was 78%. For the same compound, the remaining binding at 1 µM [16] was 82%, the remaining binding at 1 µM [17] was 82% and the remaining binding at 1 µM [18] was 100%. For the same compound, the remaining binding at 1 µM [19] was 92%, the remaining binding at 1 µM [20] was 86% and the remaining binding at 1 µM [21] was 100%. For the same compound, the remaining binding at 1 µM [22] was 100%, the remaining binding at 1 µM [23] was 100% and the remaining binding at 1 µM [24] was 96%. It also gave a remaining binding at 1 µM [25] of 100%.
